Measurements taken from patent publication US20210079035A1, “COMPOUNDS FOR TREATING NEURODEGENERATIVE DISORDERS” (ETHNODYNE, priority 2017, published 2021).
“Also recorded” adds a separate entry of the source.

Experiments:
[1] = tested on: primary rat cortical neurons; assay: Neuron survival and neurite network after glutamate injury, MAP-2 immunostaining
[2] = tested on: primary rat dopaminergic neurons (TH positive neurons); assay: Neuroprotection after MPP+ exposure, TH immunostaining; format: cell-based; conditions: for neuroprotective effect on TH positive neurons: 1 pmol/L to 10 μmol/L
Experimental: This study investigated the neuroprotective effect of the Compound CR777B of example 1 on rat primary mesencephalic cultures following exposure to 1-methyl-4-phenyl pyridinium (MPP^+).
Rat dopaminergic neurons were cultured as described by Visanji et al., 2008 FASEB J. 2008; 22(7):2488-97. Briefly, the midbrains obtained from 15-day old rat embryos (Janvier Labs, France) were dissected under a microscope. The embryonic midbrains were removed and placed in ice-cold medium of Leibovitz (L15, Batch 4290114, Pan Biotech, Germany) containing 2% of Penicillin-Streptomycin (PS, Batch 1451013, Pan Biotech) and 1% of bovine serum albumin (BSA, Batch K030913, Pan Biotech). The ventral portion of the mesencephalic flexure, a region of the developing brain rich in dopaminergic neurons, was used for the cell preparations.
The midbrains were dissociated by trypsinisation for 20 min at 37° C. […] The cells were seeded in supplemented neurobasal medium at a density of 40 000 cells/well in 96 well-plates pre-coated with poly-L-lysine (Batch 3102256, Corning Biocoat) and maintained in a humidified incubator at 37° C. in 5% CO2/95% air atmosphere. Half of the medium was changed every 2 days with fresh medium.
On day 6 of culture, the medium was removed and fresh medium was added, without or with MPP+ at 4 μM diluted in control medium and let for 48 h. In parallel, compound CR777B and withaferin A were solved in culture medium and then pre-incubated with mesencephalic neurons 1 hour before the MPP+ application (48 h).
48 hours after intoxication, the cell culture supernatant was taken off and the dopaminergic neurons were fixed by a solution of 4% paraformaldehyde in PBS, pH=7.3 for 20 min at room temperature.
After permeabilization with 0.1% of saponin (Merck, France), cells were incubated for 2 hours with monoclonal Anti-Tyrosine Hydroxylase (TH) antibody produced in mouse at dilution of 1/10000 in PBS containing 1% FCS, 0.1% saponin, for 2 h at room temperature.
The immunolabeled cultures were automatically examined with ImageXpress (Molecular Devices, United Kingdom) equipped with a LED at ×10 magnification. […] All images were taken with the same conditions. Analysis were automatically performed by using Custom Module Editor (Molecular Devices).
Data were expressed in percentage of control conditions (no injury, no compound=100%). All values were expressed as mean+/−SEM (standard error mean) of the 6 wells with statistical analyses on the different conditions (ANOVA followed by Dunnett's test when allowed, using GraphPad Prism software).

[3] = tested on: human HCT-116 colorectal carcinoma; assay: Cell growth inhibition by MTS assay (cytotoxicity); format: cell-based; conditions: for IC50: Homo sapiens, HCT-116, MTS assay, 72 h of incubation, triplicate, read-out: IC50 mM HCT116
Experimental: (§1) Human MRC-5 cell line derived from normal lung tissue and human HCT-116 colorectal carcinoma were obtained from the American Type Culture Collection (ATCC, Rockville, Md.). Cell lines were cultured according to the supplier's instructions. Human HCT-116 cells were grown in Gibco McCoy's 5A supplemented with 10% fetal calf serum (FCS) and 1% glutamine. Human MRC-5 cells were grown in DMEM supplemented with 10% fetal calf serum (FCS) and 1% glutamine.
(§2) Cells were counted using a Vi-cell XR (Beckman Coulter) and their viability assessed by 0.25% trypan blue dye exclusion. They were tested for the presence of mycoplasma before experiments with the Mycoplasma PCR Detection Kit (Applied Biological Materials Inc., Canada) in accordance with the manufacturer instructions and only mycoplasma-free cells were used for further investigations.
(§3) Cell lines were maintained at 37° C. in a humidified atmosphere containing 5% CO2. Cell growth inhibition was determined by an MTS assay according to the manufacturer's instructions (Promega, Madison, Wis., USA). […] After 24 h of culture, the cells were treated with the compound CR777B of example 1 or with the withaferine at 8 different final concentrations. Each concentration was obtained from serial dilutions in culture medium starting from the stock solution. Control cells were treated with the vehicle. Experiments were performed in triplicate.
(§4) After 72 h of incubation, 20 μL of CellTiter 96® AQueous One Solution Reagent was added for 2 h before recording absorbance at 490 nm with a spectrophotometric plate reader. The dose-response curves were plotted with Graph Prism software and the IC50 values were calculated using the Graph Prism software from polynomial curves (four or five-parameter logistic equations).

[4] = tested on: Human MRC-5 cell line derived from normal lung tissue; assay: Cell growth inhibition by MTS assay (cytotoxicity); format: cell-based; conditions: MRC5, 72 h of incubation, triplicate
Experimental: as §1, §2, §3, §4

[5] = tested on: primary motor neuron culture from rat spinal cord; assay: Motor neuron survival after glutamate exposure (in vitro ALS model), MAP-2 immunostaining; format: cell-based; conditions: for protective effect on motor neurons: 1 pM to 10 μM
Experimental: The aim of this study was to study the effect of CR777B on primary motor neuron culture from rat spinal cord (SC) injured by glutamate exposure (a well validated in vitro ALS model and model of motor neuron diseases).
Rat SC motor neurons were cultured as described by Martinou et al., Neuron. […] Briefly, pregnant female rats (Wistar, Janvier labs) of 14 days gestation were killed by cervical dislocation. […] The medium was changed every day.
For each condition, 6 wells were assessed, 30 pictures per well were taken using ImageXpress (Molecular Devices) with 20× magnification, to assess motor neuron survival (MAP-2). Analysis of picture was done using Custom Module Editor (Molecular Devices). Results were expressed in terms of mean survival neuron, labeled for MAP-2. Data were expressed in percentage of control conditions (no intoxication, no glutamate=100%) in order to express the glutamate injury. All values were expressed as mean+/−SEM (s.e.mean) of the culture (n=6 wells per condition per culture). Graphs and statistical analyses are made on the different conditions (ANOVA followed by PLSD Fisher's test when allowed, using Statview software version 5.0).

[6] = tested on: primary cocultures of central neurons and oligodendrocytes; assay: In vitro myelination (MS) model, A2B5 and MAG immunostaining; format: cell-based, rat; conditions: for conclusion: effect on OPC and OL: 1 pmol/L to 10 μmol/L
Experimental: A reproducible in vitro myelination model based on primary cocultures of central neurons and oligodendrocytes culturing in 96-well plate is used and adapted to high throughput screening.
Neurons/oligodendrocytes were cultured as previously described by Charles et al., 2000. PNAS 97 7585-7590.
Briefly, pregnant Wistar female rats of 17 days gestation were killed by cervical dislocation (Janvier Labs, France) and the foetuses removed from the uterus. The forebrains were removed and placed in ice-cold medium of Leibovitz (L15; Pan Biotech, Germany) containing 2% of Penicillin-Streptomycin (Batch 1451013, PanBiotech) and 1% of bovine serum albumin (BSA) (Batch K180713, Pan Biotech). Cortexes were dissociated by trypsinisation for 20 min at 37° C., with Trypsin EDTA 1× (Batch 7310713, PanBiotech). The reaction was stopped by the addition of Dulbecco's modified Eagle's medium (DMEM) (Batch 9710913, PanBiotech) containing DNAase I grade II at 0.1 mg/mL (Batch H131108, PanBiotech) and 10% of foetal calf serum (Batch 41Q7218K, Invitrogen, France). Cells were then mechanically dissociated by 3 passages through a 10 mL pipette. Cells were centrifuged at 180×g for 10 min at 4° C. temperature on a layer of BSA (3.5%) in L15 medium. The supernatant was discarded and cells of the pellet were re-suspended in DMEM containing 10% of FCS. […] The supernatant was discarded and cells of pellet were re-suspended in a culture medium consisting of Neurobasal (Batch 1625353, Invitrogen) supplemented with 2% of B27 (Batch 1618508, Invitrogen), 2 mM of L-glutamine (Batch 6620314, PanBiotech), 2% of PS solution, 1% of foetal calf serum (FCS) and 10 ng/mL of platelet-derived growth factor (PDGF-AA) (Batch H131205, PanBiotech).
The plates were maintained at 37° C. in a humidified incubator, in an atmosphere of air (95%)-CO2 (5%). Half of the medium was changed every 2 days with fresh medium in presence or absence of compound.
The cells were then permeabilized and non-specific sites were blocked with a solution of phosphate buffered saline (Batch 3010914, PanBiotech) containing 0.1% of saponin (Batch BCBJ8417V, Sigma) and 1% FCS for 15 min at room temperature.
On day 12, cells were incubated with Monoclonal Anti-A2B5 conjugated Alexa Fluor® 488 produced in mouse (Batch 2281669, Millipore, France) at dilution of 1/200 in PBS containing 1% FCS, 0.1% saponin, and with anti-MAP-2 antibody produced in chicken (Batch GR180541-3, AbCam; United Kingdom) at dilution of 1/1000 in PBS containing 1% FCS, 0.1% saponin for 2 h at room temperature.
On day 18, cells were incubated with Monoclonal Anti-MAG antibody produced in mouse (Batch 2301638, Millipore) at dilution of 1/400 in PBS containing 1% FCS, 0.1% saponin, and with anti-MAP-2 antibody produced in chicken at dilution of 1/1000 in PBS containing 1% FCS, 0.1% saponin for 2 h at room temperature.
The immunolabeled cultures were automatically examined with ImageXpress (Molecular Devices) equipped with a LED at ×20 magnification. For each condition, 30 pictures (representing ˜80% of the total surface of the well) per well were taken. All images were taken with the same conditions. Number of A2B5 positive cells and number of MAG positive cells were automatically analyzed by using Custom module editor (Molecular Devices). Data were expressed in percentage of control conditions (no plant extract=100%). All values were expressed as mean+/−SEM (s.e.mean) of the 6 wells. Graphs and statistical analyses are made on the different conditions (ANOVA followed by Dunnett's test when allowed, using GraphPad Prism software).

[7] = added 1 h before glutamate (40 μM, 20 min) and let for 48 h
[8] = added 1 h before MPP+ (4 μM) and let for 48 h
[9] = added 1 h before glutamate (5 μM, 20 min)
[10] = after 12 or 18 days of incubation

CC1=C(CO)C(=O)O[C@@H]([C@@H](C)[C@H]2CCC3C4C[C@H]5O[C@]56[C@@H](O)C(SC[C@H](NC(=O)CC[C@@H](N)C(=O)O)C(=O)NCC(=O)O)CC(=O)[C@]6(C)C4CC[C@@]32C)C1 (some centres unmarked) [CR777B]
concentration with toxicity on neurite network [1, 7]: 10 µM
concentrations with toxic effect on TH positive neurons [2, 8]: 10 µM
neuroprotective effect on TH positive neurons [2, 8]: significant protective effect (neuron survival and preservation of neurite network) at all doses (except at the highest dose)
IC50 [3]: 0.00266 mM
toxicity on the cells compared with withaferin ([3]; whatever the cell line tested (HCT116 and MRC5)): less toxic than the compound withaferin
IC50 [4]: 0.0036 mM
MN protective effect at the 2 highest doses ([5]; 2 highest doses (1 and 10 μM), glutamate 5 μM, 20 min): inactive
concentration of maximal MN protective effect (bell shape curve) ([5]; added 1 h before glutamate (5 μM, 20 min), then 48 h): 100 nM
protective effect on motor neurons [5, 9]: significant protective effect at all doses (except at the 2 highest doses)
conclusion: effect on OPC and OL [6]: significantly increase the number of OPC and OL
OPC number (A2B5 positive cells) ([6]; after 12 days of incubation): significant increase of OPC
concentration of maximal effect on OPC number (bell shape curve) ([6]; after 12 days of incubation): 100 pM
total number of OPCs at the highest doses ([6]; after 12 days of incubation, highest doses): decrease of the total number of OPCs
myelination of neurons by OL (MAG expression) ([6]; after 18 days of treatment): significantly improved the myelination of neurons by OL
number of MAG positive cells (OL) ([6]; after 18 days of treatment): increase the number of MAG positive cells

N[C@@H](CCC(=O)O)C(=O)O [Glutamate, glutamate]
neuronal death and neurite network loss ([1]; glutamate 40 μM, 20 min): significant neuronal death and neurite network loss
motor neuron death ([5]; glutamate 5 μM for 20 min): > 30%

C[n+]1ccc(-c2ccccc2)cc1 [MPP+, 1-methyl-4-phenyl pyridinium]
TH positive neuron cell death ([2]; MPP+ 4 μM, 48 h): > 35%

CC1=C(CO)C(=O)O[C@@H]([C@@H](C)[C@H]2CC[C@H]3[C@@H]4C[C@H]5O[C@]56[C@@H](O)C=CC(=O)[C@]6(C)[C@H]4CC[C@]23C)C1 [Withaferin A, (4β,5β,6β,22R)-4,27-Dihydroxy-5,6:22,26-diepoxyergosta-2,24-diene-1,26-dione]
protection of neurons from death [1, 7]: did not protect neurons from death
toxicity for TH positive neurons ([2]; MPP+ 4 μM, 48 h, highest doses): toxic for TH positive neurons at the highest doses
neuroprotective effect on TH positive neurons [2, 8]: did not show any neuroprotective effect
neuroprotective effect on TH positive neurons ([2]; added 1 h before MPP+ (4 μM) and let for 48 h, listed as withaferin A): did not show any effect
IC50 [3]: 0.00037 mM
IC50 [4]: 0.00025 mM
toxicity for MN ([5]; MN injured by glutamate (5 μM, 20 min)): toxic for MN injured by glutamate
protective effect on motor neurons [5, 9]: did not show a protective effect; also recorded: did not show any neuroprotective effect
conclusion: effect on OPC and OL [6]: toxic for OPC and OL at all doses
number of OL [6, 10]: significant decrease of the number of OL
toxicity / OPC proliferation [6, 10]: large toxic and/or inhibition of the OPC proliferation
